# Assay results reported in patent US20260207626A1, “SYNTHETIC TRITERPENOIDS AND COMPOSITIONS THEREOF IN WEIGHT MANAGEMENT, SKELETAL MUSCLE FUNCTION, AND APPETITE SUPPRESSION” (The Board of Regents of the University of Texas System, priority 2022, published 2026).
# “Also recorded” adds a separate entry of the source. Marks after values point to notes of the source that are not given here.
# Experiments:
# [1] = Chow consumption / energy intake of mice fed LFD or HFD with or without CDDO-EA; assay type: in vivo, C57B16/J mice
# Protocol: To assess the protective effects of CDDO-EA from obesity and insulin resistance, C57B16/J mice (6-8 weeks old, male, strain #000664, The Jackson Laboratory) were used. The animals were fed a Low Fat diet (LFD) (10% total calories from fat, […]) or a High Fat diet (HFD) (60% of total calories from fat) incorporated with or without CDDO-EA (chow containing 0.04% CDDO-EA) for six weeks.
# Energy intake was also measured. Energy intake is determined as a measure of the amount of food consumed by a subject (such as a subject mouse). […] Thus CDDO-EA protects from development of HFD-induced obesity in vivo.
# The mice were maintained on one of the 4 food regiment schedules as defined in Example 2. The amount of food consumed by an animal was monitored weekly.
# TNF-α = assay: Quantitative RT-PCR of LPS-induced TNF-α mRNA in L6-GLUT4myc myotubes; assay type: cell-based, rat; settings: 500 nM CDDO-EA 1 hr then 100 ng/ml LPS 1 hr
# Protocol: Quantitative RT-PCR: L6-GLUT4myc myoblasts (4×10^4 cell/ml, 2 ml/well) were seeded on a 6-well plate and differentiated into myo-tubes with differentiation medium for 7 days. Myotubes were pre-treated with CDDO-EA 500 nM for 1 h followed by LPS 100 ng/ml (E. coli O111: B4, Sigma Aldrich) treatment for 1 h. RNA was isolated from treated myotubes using TRIzol reagent (Ambion) according to the manufacturer's instructions. Validated RT-PCR primers specific for rat TNF-α (Assay ID: Rn99999017_m1) and rat MCP-1 (Assay ID: Rn00580555_m1), or rat GAPDH (Assay ID: Rn99999916_s1) were used to quantify mRNA levels using TaqMan RNA-to-CT 1-Step Kit (Thermo Fisher Scientific), Real-time PCR was carried out using an AB7900HT Fast Real-Time PCR System (Applied Biosystems), and MCP-1 and TNF-α levels were calculated using the ΔΔCT method according to the manufacturer's instructions.
# p65 NF-κB = assay: NF-κB p65 nuclear translocation (immunofluorescence and subcellular fractionation) in L6-GLUT4myc myotubes; assay type: cell-based, rat
# Protocol: NF-κB is bound to IκB-α in the cytoplasm. Upon activation of the IKK/NF-κB/IκB pathway, IκB is degraded, freeing NF-κB to translocate into the nucleus and activate the transcription of pro-inflammatory mediators. To visualize the localization of NF-κB, immunofluorescence and confocal microscopy studies were performed in L6-GLUT4myc myo-tubes pre-treated with CDDO-EA for 1 h and then exposed to LPS for 1 h. The untreated muscle cells show a basal-level expression of p65 NF-κB in the nucleus (FIG. 14A).
# For subcellular fractionation, differentiated L6-GLUT4myc myotubes were pre-treated with CDDO-EA 500 nM for 1 h follow by LPS 100 ng/ml (E. coli O111: B4, Sigma Aldrich) treatment for 1 h, and the nuclear and cytosolic fractions were isolated using the Nuclear Extraction Kit (Panomics) according to the manufacturer's instructions. The extracted fractions were then analyzed by Western blotting as described.
# Immunofluorescence microscopy: L6-GLUT4myc myoblasts (4×10^4 cells/ml, 0.2 ml/well) were plated onto Nunc Lab-TekII 8-chamber slides (Thermo Fisher Scientific) and differentiated for 7 days. Myotubes were pre-treated with CDDO-EA 500 nM for 1 h followed by LPS 100 ng/ml (E. coli O111: B4, Sigma Aldrich) treatment for 1 h. […]
# MCP-1 = assay: LPS-induced MCP-1 ELISA in RAW264.7 macrophages (CDDO-EA batches); assay type: cell-based, mouse; settings: RAW264.7, 500 nM 1 hour then 100 ng/ml LPS 6 hr
# Protocol: Macrophages were pre-treated with 500 nM CDDO-EA #1 or 500 nM CDDO-EA #2, for 1 hour. The microphages were then stimulated with 100 ng/ml of lipopolysaccharide (LPS) for 6 hr. Supernatants were collected from each culture. An enzyme linked immunoassay (ELISA) was performed to detect levels of the pro-inflammatory protein, monocyte chemotactic protein-1 (MCP-1). The macrophages were also treated with LPS alone or with CDDO-EA alone. A control (no treatment) group was also included in the study.
# The second batch of CDDO-EA was tested for its biological property of anti-inflammatory activity. As with the first batch of CDDO-EA, this was tested by using the mouse macrophage cell line RAW264.7. RAW264.7 macrophages were pre-treated with 500 nM CDDO-EA for 1 hour then stimulated with 100 ng/ml of lipopolysaccharide (LPS) for 6 hr. Supernatants were collected, and an enzyme linked immunoassay (ELISA) was performed to detect the pro-inflammatory protein, monocyte chemotactic protein-1 (MCP-1). The macrophages were also treated with LPS alone or with CDDO-EA alone. A control (no treatment) group was also included in the study. […] This suppression of MCP-1 production by the second batch CDDO-EA is similar to that observed for the first batch of CDDO-EA. (See FIG. 21).
# NFκB = assay: Western blot of palmitate (PA)-induced NFκB phosphorylation in L6-GLUT4myc myotubes; assay type: cell-based, rat; settings: CDDO-EA 500 nM 1 h then PA 400 μM 6 h
# Protocol: L6-GLUT4myc myotubes were pretreated with CDDO-EA (500 nM, 1 h) and then treated with PA (400 μM, 6 h). NFκB phosphorylation and protein were measured by Western blotting. Data are represented as ±SEM. * P<0.05 vs. control; ^#P<0.05 vs. […]. (One-Way ANOVA).
# N171-82Q mice = settings: cited from earlier work
compound,measurement,setting,value
"CCNC(=O)[C@]12CCC(C)(C)C[C@H]1C1C(=O)C=C3[C@@]4(C)C=C(C#N)C(=O)C(C)(C)[C@@H]4CC[C@@]3(C)[C@]1(C)CC2 (stereo partly drawn) [CDDO-EA, (4aS,6aR,6bS,8aR,12aS,14bS)-11-cyano-N-ethyl-2,2,6a,6b,9,9,12a-heptamethyl-10,14-dioxo-1,3,4,5,6,6a,6b, 7,8,8a,9,10,12a, 14,14a, 14b-hexadecahydropicene-4a (2H)-carboxamide]",Grams of Chow per Week Consumed by Animals,"[1]; HFD + CDDO-EA (0.04%), week 1",18.0 ± 0.9 Grams of Chow per Week
same,Grams of Chow per Week Consumed by Animals,"[1]; HFD + CDDO-EA (0.04%), week 2",18.4 ± 1.0 Grams of Chow per Week
same,Grams of Chow per Week Consumed by Animals,"[1]; HFD + CDDO-EA (0.04%), week 3",16.8 ± 0.5 Grams of Chow per Week
same,Grams of Chow per Week Consumed by Animals,"[1]; HFD + CDDO-EA (0.04%), week 4",15.8 ± 0.4* * Grams of Chow per Week
same,Grams of Chow per Week Consumed by Animals,"[1]; HFD + CDDO-EA (0.04%), week 5",16.2 ± 0.5 Grams of Chow per Week
same,Grams of Chow per Week Consumed by Animals,"[1]; HFD + CDDO-EA (0.04%), week 6",16.6 ± 0.4 Grams of Chow per Week
same,energy intake (caloric food consumption),[1]; HFD chow mixed with CDDO-EA,decreased energy intake; also recorded: inhibits energy intake
same,average weekly chow consumption,"[1]; HFD+CDDO-EA group, all six weeks",17 g
same,Grams of Chow per Week Consumed by Animals,"[1]; LFD + CDDO-EA (0.04%), week 1",19.2 ± 0.6 Grams of Chow per Week
same,Grams of Chow per Week Consumed by Animals,"[1]; LFD + CDDO-EA (0.04%), week 2",21.5 ± 0.6 Grams of Chow per Week
same,Grams of Chow per Week Consumed by Animals,"[1]; LFD + CDDO-EA (0.04%), week 3",21.1 ± 0.7 Grams of Chow per Week
same,Grams of Chow per Week Consumed by Animals,"[1]; LFD + CDDO-EA (0.04%), week 4",20.0 ± 0.2 Grams of Chow per Week
same,Grams of Chow per Week Consumed by Animals,"[1]; LFD + CDDO-EA (0.04%), week 5",21.3 ± 0.3 Grams of Chow per Week
same,Grams of Chow per Week Consumed by Animals,"[1]; LFD + CDDO-EA (0.04%), week 6",19.8 ± 0.4 Grams of Chow per Week
same,more food consumed by HFD-fed animals than by HFD plus CDDO-EA-fed animals,[1]; week 3,20%
same,more food consumed by HFD-alone animals than by HFD + CDDO-EA animals,[1]; week one,at least 10%
same,LPS-induced TNF-α mRNA expression,TNF-α,lowered LPS-induced mRNA levels of TNF-α and MCP-1; also recorded: blocked the mRNA expression of LPS-induced TNF-α and MCP-1; also recorded: reduced LPS-induced TNF-α and MCP-1 gene expression levels; also recorded: inhibits LPS-inducted TNF-α and MCP-1 gene expression
same,LPS-induced p65 NF-κB nuclear translocation,p65 NF-κB; 500 nM CDDO-EA 1 hr then 100 ng/ml LPS 1 hr,reduces LPS-induced p65 NF-κB nuclear staining; also recorded: decreased both cytoplasmic and nuclear localization of p65 NF-κB; also recorded: prevented NF-κB translocation to the nucleus
same,NF-κB activation,"p65 NF-κB; CDDO-EA alone, no LPS",had no effect on NF-κB activation
same,LPS-induced production of MCP-1,MCP-1,significantly suppresses the LPS-induced production
same,PA-induced NFκB phosphorylation,NFκB,inhibits PA-induced NF-κB activation; also recorded: inhibits PA-induced NFκB phosphorylation
same,"muscle strength and balance, survival",N171-82Q mice; N171-82Q mice,improved muscle strength and balance and increased survival
same,accumulation in the skeletal muscle,N171-82Q mice; Stack et al. (2010),accumulated in the skeletal muscle
same,oxidative stress in skeletal muscle,N171-82Q mice; Stack et al. (2010),oxidative stress in skeletal muscle was reduced
